Results published in patent publication US12358899B2, “Thyroid hormone receptor agonists and uses thereof” (XIZANG HAISCO PHARMACEUTICAL CO., LTD., priority 2018, dated 2025).

How the values were obtained:
[1] = molecular target: T1, CYP 3A4 (Homo sapiens, UniProt P08684); experiment: CYP inhibition in human liver microsome, 3A4; format: in vitro ADME; conditions: human liver microsomes, substrate midazolam, top 50 μM; read-out: CYP450 inhibition IC50 3A4
T1 construct: from tissue; host or cells: human liver microsomes
Description: (§1) Test compounds were evaluated for CYP inhibition using human liver microsomes (HLM). Test compounds were 1:3 serially diluted starting at 50 μM to generate 7 different concentrations. After incubation of diluted test compounds with HLM, a substrate cocktail composed of phenacetin (10 uM), amodiaquine (2 uM), diclofenac (5 uM), s-mephenytoin (30 uM), dextromethorphan (5 uM), and midazolam (2 uM) was added to check the remaining CYP activity for CYP 1A2, 2C8, 2C9, 2C19, 2D6 and 3A4. The CYP activity was measured by detecting the peak area of individual metabolites of know CYP substrates using LC/MS/MS. A percentage of inhibition of CYP was calculated at each final concentration of test compound, through which an IC50 was fitted to represent the inhibition potential.

[2] = molecular target: T2, CYP 1A2 (Homo sapiens, UniProt P05177); experiment: CYP inhibition in human liver microsome, 1A2; format: in vitro ADME; conditions: human liver microsomes, substrate phenacetin, top 50 μM; read-out: CYP450 inhibition IC50 1A2
T2 construct: from tissue; host or cells: human liver microsomes
T2 sequence (P05177 1-516): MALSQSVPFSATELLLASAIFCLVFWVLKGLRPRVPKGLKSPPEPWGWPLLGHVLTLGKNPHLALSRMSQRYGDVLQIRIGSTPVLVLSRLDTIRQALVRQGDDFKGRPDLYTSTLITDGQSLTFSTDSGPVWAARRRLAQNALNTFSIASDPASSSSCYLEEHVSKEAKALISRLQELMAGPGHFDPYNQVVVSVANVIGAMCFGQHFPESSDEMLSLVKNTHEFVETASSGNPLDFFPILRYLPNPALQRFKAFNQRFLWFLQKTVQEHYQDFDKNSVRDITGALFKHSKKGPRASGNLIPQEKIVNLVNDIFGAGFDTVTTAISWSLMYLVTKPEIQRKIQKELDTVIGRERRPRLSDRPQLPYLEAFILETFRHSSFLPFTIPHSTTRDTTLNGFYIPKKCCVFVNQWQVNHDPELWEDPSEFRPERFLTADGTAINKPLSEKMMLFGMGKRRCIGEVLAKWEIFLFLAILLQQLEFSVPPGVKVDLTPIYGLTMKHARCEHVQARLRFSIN
Description: as §1

[3] = molecular target: T3, CYP 2D6 (Homo sapiens, UniProt P10635); experiment: CYP inhibition in human liver microsome, 2D6; format: in vitro ADME; conditions: human liver microsomes, substrate dextromethorphan, top 50 μM; read-out: CYP450 inhibition IC50 2D6
T3 construct: from tissue; host or cells: human liver microsomes
Description: as §1

[4] = tested on: C57BL/6cnc mice; experiment: Antifibrotic and fat reduction efficacy in NASH mouse model; format: in vivo; conditions: for overall activity in the second NASH study, compounds compared / LDL-c level / liver TC / liver TG / plasma TC level / plasma LDL-c level / ALT level / liver weight: 1 mg/kg daily oral; for expression of DIO1 in liver: end of study; for ALT level / liver weight: to normal range
Description: (§2) C57BL/6cnc mice were fed with high-fat diet containing 60 kacl % fat and 0.10% methionine (no added choline) (Research Diets, A06071302) for 12 weeks to induce NASH model. After 12-week diet induction, the mice had increased plasma levels of TC, LDL-c, ALT, and fibrosis markers. Two studies were performed on this diet-induced NASH model with different compounds and treatment durations. […] Serum biochemistry was measured before dosing during study. At the end of the experiment, liver was collected to measure liver TC and TG. Livers were punched in 2 mm diameter and fixed, sectioned and stained with Sirius Red, and the fibrosis and steatosis were scored.

[5] = molecular target: T4, THRβ-LBD (Homo sapiens, UniProt P10828)
T4 sequence (P10828 217-461 limits assumed): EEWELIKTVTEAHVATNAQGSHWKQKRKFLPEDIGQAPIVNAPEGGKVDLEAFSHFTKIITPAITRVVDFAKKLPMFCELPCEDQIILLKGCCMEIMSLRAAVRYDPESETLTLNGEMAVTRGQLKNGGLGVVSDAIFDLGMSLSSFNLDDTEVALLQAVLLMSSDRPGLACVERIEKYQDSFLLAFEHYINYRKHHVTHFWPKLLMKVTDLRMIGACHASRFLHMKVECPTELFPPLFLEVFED

[6] = tested on: α-MHC; experiment: Heart safety evaluation in hypothyroid rat: cardiac α-MHC expression; format: in vivo; conditions: intraperitoneal, 37.5 mg/kg (T3 0.1 mg/kg), heart tissue after 6 hours
Description: SD Rats underwent thyroidectomy and recovered for 10 days. T3 and T4 were tested to confirm the complete thyroidectomy. […] Note that the dose for these compounds was […] higher than their therapeutic dose (1 mg/kg by oral gavage) in mouse models. For comparison, thyroid hormone T3 was also tested at 0.1 mg/kg with intraperitoneal injection. […] After 6 hours, the heart tissues were collected to quantitate the expression of α-MHC, a thyroid hormone responsive and THRα-target gene in heart.

[7] = tested on: C57BL/6cnc mice; experiment: Synergistic effect of Example 7 with other NASH compounds in mouse model; format: in vivo; conditions: Example 7 0.3 mg/kg oral daily with liraglutide, Elafibranor or CDDO-Me, 2 weeks
Text: There are other candidates being developped for inflammation, metabolism syndromes or NASH These include glucagon-like peptide-1 (GLP-1) receptor agonist liraglutide, peroxisome proliferator-activated receptor-α and -β (PPAR-α/δ) agonist elafibranor, and nuclear erythroid 2-related factor 2 (NRF2) activator bardoxolone methyl (CDDO-Me). These candidates target different proteins and pathways, therefore have different mechanisms of action related to steatosis, inflammation, and fibrosis.
as §2, with “[…] An Example 7 alone group and a vehicle group” for “Two studies”, “also set up for controls.” for “performed on this diet-induced NASH model with different compounds and treatment durations.”, “After 2-week treatment, serum” for “Serum”, “measured;” for “measured before dosing during study. At the end of the experiment,”

[8] = first NASH study, 12 weeks, as early as 6 days after treatment

T1 sequence (P08684 whole entry): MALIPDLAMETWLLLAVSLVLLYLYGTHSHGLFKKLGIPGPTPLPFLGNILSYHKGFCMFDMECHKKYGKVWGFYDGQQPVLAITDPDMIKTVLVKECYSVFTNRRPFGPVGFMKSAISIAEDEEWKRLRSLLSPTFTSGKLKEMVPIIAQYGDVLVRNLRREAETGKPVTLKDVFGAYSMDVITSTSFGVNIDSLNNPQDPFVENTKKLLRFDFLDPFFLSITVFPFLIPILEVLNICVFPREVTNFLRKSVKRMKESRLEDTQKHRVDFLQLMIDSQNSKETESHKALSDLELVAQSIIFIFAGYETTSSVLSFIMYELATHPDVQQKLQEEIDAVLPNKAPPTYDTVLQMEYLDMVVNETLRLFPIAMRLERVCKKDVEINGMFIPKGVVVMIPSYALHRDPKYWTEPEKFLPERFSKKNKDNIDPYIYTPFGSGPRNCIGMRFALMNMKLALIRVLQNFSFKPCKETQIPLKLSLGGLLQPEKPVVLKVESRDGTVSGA
T3 sequence (P10635 whole entry): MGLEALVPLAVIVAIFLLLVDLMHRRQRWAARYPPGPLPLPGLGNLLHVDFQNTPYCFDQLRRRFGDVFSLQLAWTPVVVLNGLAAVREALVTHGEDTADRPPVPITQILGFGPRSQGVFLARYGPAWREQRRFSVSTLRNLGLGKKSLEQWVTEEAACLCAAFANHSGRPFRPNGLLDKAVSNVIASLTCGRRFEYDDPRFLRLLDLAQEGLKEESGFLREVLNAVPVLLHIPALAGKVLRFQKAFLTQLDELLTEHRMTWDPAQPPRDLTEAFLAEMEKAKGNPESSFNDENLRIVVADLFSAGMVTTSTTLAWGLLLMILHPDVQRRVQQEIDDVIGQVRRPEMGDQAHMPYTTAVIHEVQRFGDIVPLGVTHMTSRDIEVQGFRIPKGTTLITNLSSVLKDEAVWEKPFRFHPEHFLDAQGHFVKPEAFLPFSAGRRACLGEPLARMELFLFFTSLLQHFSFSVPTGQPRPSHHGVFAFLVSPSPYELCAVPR

Compound | IC50 [1] [µM] | IC50 [2] [µM] | IC50 [3] [µM] | overall activity in the second NASH study, compounds compared ([4]; 6 weeks) | LDL-c level ([4]; second NASH study, 6 weeks) | liver TC ([4]; second NASH study, 6 weeks) | liver TG ([4]; second NASH study, 6 weeks) | plasma TC level ([4]; second NASH study, 6 weeks) | expression of DIO1 in liver ([4]; second NASH study) | selectivity ratio [5] | expression of cardiac α-MHC [6] | synergistic effect with other candidates in reduction of liver and plasma lipids and improvement of liver conditions [7] | liver TC ([4]; first NASH study, 12 weeks) | liver TG ([4]; first NASH study, 12 weeks) | plasma LDL-c level ([4]; first NASH study, 12 weeks) | plasma TC level [4, 8] | ALT level ([4]; first NASH study, 12 weeks) | liver weight ([4]; first NASH study, 12 weeks) | fibrosis score ([4]; first NASH study, Sirius Red histopathology, versus control group and MGL-3196-treated group)
C[C@@H]1CCc2c(Oc3c(Cl)cc(-n4nc(C#N)c(=O)[nH]c4=O)cc3Cl)n[nH]c(=O)c21 (single isomer, unassigned) [Example 41] | > 50 | > 50 | > 50 | equivalent | reduced | significantly decreased | significantly decreased | reduced | significantly increased | 12.3 |  |  |  |  |  |  |  |  | 
[2H]C([2H])([2H])C(c1cc(Oc2c(Cl)cc(-n3nc(C#N)c(=O)[nH]c3=O)cc2Cl)n[nH]c1=O)C([2H])([2H])[2H] [Example 7, 2-(3,5-dichloro-4-((6-oxo-5-(propan-2-yl-1,1,1,3,3,3-d6)-1,6-dihydropyridazin-3-yl)oxy)phenyl)-3,5-dioxo-2,3,4,5-tetrahydro-1,2,4-triazine-6-carbonitrile] | > 50 | > 50 | > 50 | equivalent | reduced | significantly decreased | significantly decreased | reduced | significantly increased |  | not affected | significantly synergistic effect | significantly decreased | significantly decreased | reduced to normal range | reduced | reduced | reduced | much lower
[2H]c1c(Cl)c(Oc2cc(C(C([2H])([2H])[2H])C([2H])([2H])[2H])c(=O)[nH]n2)c(Cl)c([2H])c1-n1nc(C#N)c(=O)[nH]c1=O [Example 30, 2-(3,5-dichloro-4-((6-oxo-5-(propan-2-yl-1,1,1,3,3,3-d6)-1,6-dihydropyridazin-3-yl)oxy)phenyl-2,6-d2)-3,5-dioxo-2,3,4,5-tetrahydro-1,2,4-triazine-6-carbonitrile] | > 50 | > 50 | > 50 | less potent | reduced |  |  | reduced |  |  |  |  |  |  |  |  |  |  | 
CC(C)c1cc(Oc2c(Cl)cc(-n3nc(C#N)c(=O)[nH]c3=O)cc2Cl)n[nH]c1=O [MGL-3196, reference compound] | > 50 | > 50 | > 50 |  |  |  |  |  |  |  | not affected |  | significantly decreased | significantly decreased | reduced to normal range | reduced | reduced | reduced | 
